From article PMC8779152, “A “Double-Locked” and Enzyme/pH-Activated Theranostic Agent for Accurate Tumor Imaging and Therapy” (Molecules, 2022)

Molecular target: HDAC1 (Homo sapiens, UniProt Q13547)
Assay: HDAC1 enzyme inhibition (assay details not given)
Assay type: biochemical

HDAC1, sequence (Q13547 whole entry): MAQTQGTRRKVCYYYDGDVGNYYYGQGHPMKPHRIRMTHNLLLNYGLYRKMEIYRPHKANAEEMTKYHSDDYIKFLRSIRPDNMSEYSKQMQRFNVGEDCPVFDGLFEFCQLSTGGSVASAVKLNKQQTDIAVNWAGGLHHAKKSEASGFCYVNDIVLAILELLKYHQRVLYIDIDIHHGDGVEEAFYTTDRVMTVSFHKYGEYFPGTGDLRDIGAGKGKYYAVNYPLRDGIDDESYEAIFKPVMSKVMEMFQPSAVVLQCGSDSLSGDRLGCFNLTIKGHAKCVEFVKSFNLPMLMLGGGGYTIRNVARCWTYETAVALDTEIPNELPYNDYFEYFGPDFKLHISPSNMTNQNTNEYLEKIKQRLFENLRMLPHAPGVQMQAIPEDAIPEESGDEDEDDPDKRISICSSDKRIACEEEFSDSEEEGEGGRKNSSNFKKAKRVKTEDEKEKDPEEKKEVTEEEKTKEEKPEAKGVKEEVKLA

IC50 [nM]	SMILES
65 ± 6	O=C(NO)c1ccc(CNc2cc3c([nH]c4ccccc43)c(-c3ccc([N+](=O)[O-])cc3)n2)cc1 [H6M]
41 ± 5	Nc1ccc(-c2nc(NCc3ccc(C(=O)NO)cc3)cc3c2[nH]c2ccccc23)cc1 [H6AQ]
